Where two headings read alike, the source gives them in different places.
Legend:
T. cruzi trypomastigotes = experiment: Proliferation assay of T. cruzi trypomastigotes inside Human Osteoblasts; assay type: cell-based, Trypanosoma cruzi; conditions: 48 H treatment
Protocol: IC50 is median inhibitory concentration. TI is therapeutic index. […] This example further illustrates positives effects of treatment with the present compounds. […] The negative control was treated with 1% DMSO. The positive control was treated with Amp B at […].

T. cruzi Epimastigotes = experiment: Activity against T. cruzi epimastigotes; assay type: cell-based, Trypanosoma cruzi
[1] = system: L. major Luciferase promastigotes; experiment: Antiparasitic activity in L. major Luciferase promastigotes; assay type: cell-based, Leishmania major; conditions: 72 hr
Excerpt: IC50 is median inhibitory concentration. TI is therapeutic index.

SMILES	Mammalian cells LD50 (μM) Raw 264.7 Macrophages (Raw 264.7 Macrophages; mouse, 48 h)	IC50 (T. cruzi trypomastigotes; Trypanosoma cruzi, Osteoblast)	further results
CCOC(=O)c1c(NC(=O)c2cccc(C(F)(F)F)c2F)sc2c1CC(C)(C)NC2(C)C [GP1-04, Ethyl 2-(2-fluoro-3-(trifluoromethyl)benzamido)-5,5,7,7-tetramethyl-4,5,6,7-tetrahydrothieno[2,3-c]pyridine-3-carboxylate]	17 µM	–	–
CCOC(=O)c1c(NC(=O)c2ccc(F)c(C(F)(F)F)c2)sc2c1CC(C)(C)NC2(C)C [GP1-05, Ethyl 2-(4-fluoro-3-(trifluoromethyl)benzamido)-5,5,7,7-tetramethyl-4,5,6,7-tetrahydrothieno[2,3-c]pyridine-3-carboxylate]	22 µM	–	–
CCOC(=O)c1c(N)sc2c1CC(C)(C)NC2(C)C [RS1, Ethyl 2-amino-5,5,7,7-tetramethyl-4,5,6,7-tetrahydrothieno[2,3-C]pyridine-3-carboxylate]	–	< 10 µM	–
CCOC(=O)c1c(NC(=O)c2ccc([N+](=O)[O-])s2)sc2c1CC(C)(C)NC2(C)C [RS2, ethyl 5,5,7,7-tetramethyl-2-(5-nitrothiophene-2-carboxamido)-4,5,6,7-tetrahydrothieno[2,3-c]pyridine-3-carboxylate]	~32 µM	< 1.25 µM	T. cruzi LD50 (μM) Epimastigotes (T. cruzi Epimastigotes): ~7.5 µM
CCOC(=O)c1c(NC(=O)c2cccc(C(F)(F)F)c2)sc2c1CC(C)(C)NC2(C)C [RS3, Ethyl 5,5,7,7-tetramethyl-2-(3-(trifluoromethyl)benzamido)-4,5,6,7-tetrahydro-thieno[2,3-c]pyridine-3-carboxylate]	>40 µM	< 1.25 µM	–
CCOC(=O)c1c(NC(=O)c2c(F)c(F)c(F)c(F)c2F)sc2c1CC(C)(C)NC2(C)C [RS4, Ethyl 5,5,7,7-tetramethyl-2-(perfluorobenzamido)-4,5,6,7-tetrahydrothieno[2,3c]pyridine-3-carboxylate]	–	–	L. major LD50 (μM) Promastigotes [1]: 0.671 µM; IC50 (T. cruzi trypomastigotes): < 0.156 µM; Mammalian cells LD50 (μM) Raw 264.7 Macrophages (Raw 264.7 Macrophages; macrophage cytotoxicity, text: intraperitoneal macrophages (IPΦ) treated for 48 hrs): ~15 µM
CCOC(=O)c1c(NC(=O)c2ccc(C(F)(F)F)cc2)sc2c1CC(C)(C)NC2(C)C [RS5, Ethyl 5,5,7,7-tetramethyl-2-(4-(trifluoromethyl)benzamido)-4,5,6,7-tetrahydrothieno[2,3-c]pyridine-3-carboxylate]	–	7.5 µM	–
